# Assay results reported in US20150157584A1, “INHIBITORS OF HIPPO-YAP SIGNALING PATHWAY” (The Regents of the University of California, priority 2012, published 2015).
# Where two headings read alike, the source gives them in different places.
# What was measured:
# EKVX adenocarcinoma = test: cell migration assay, EKVX; type: cell-based, human
# Method: (§1) Cell migration assay was performed using BD Falcon™ Cell culture inserts for 24-well plates with 22.0 μm pores filter, and the filter was pre-coated with […] Fibronectin. Cancer cells were serum-starved for 24 h and then seeded into the upper chamber of the insert in serum-free media, and lower chamber was filled with media containing 20% FBS with or without 2 μM C108. After 24 h, cells were fixed using 4% paraformaldehyde and stained using 0.05% crystal violet. Cells in upper chamber were carefully removed, and cells migrated through the filter were assessed by photography. For quantification, crystal violet was extracted and the absorbance at 560 nm was measured.
# M14 Melanoma = test: M14 melanoma cell proliferation (growth curve); type: cell-based, human
# [1] = system: EKVX adenocarcinoma xenograft; test: EKVX adenocarcinoma xenograft in nude mice; type: in vivo, mouse; details: 100 mg/kg daily via tail-vein injection, three weeks
# Method: (§5) Cells grown to 90% confluence were harvested by trypsinization, washed in phosphate-buffered saline (PBS), and resuspended in PBS supplemented with 50% matrigel (BD Biosciences). Cells in 200 μL per injection site were administered. Nude mice (Nu-foxn1nu, Charles Rivers Laboratories) were injected on both flanks of the dorsolateral sites subcutaneously. C108 was formulated in 10% DMSO and 40% propylene glycol then administered at a dose of 100 mg/kg daily via tail-vein injection. Control mice received vehicle alone. The average tumor diameter (two perpendicular axes of the tumor were measured) was recorded. The data are expressed in tumor volume estimated by ([width]^2×length/2). Paired, two-tailed Student's t-test was performed to access the statistical significance.
# In order to investigate the physiological impact of C108 on implanted tumor cell growth, in vivo xenograft models using M14 melanoma and EKVX adenocarcinoma in immune compromised mice were examined. Cancer cells mixed with 50% matrigel were injected subcutaneously, palpable tumors with approximately 5 mm in diameter across all injection sites were observed within 3 weeks. […] During the treatment period, tumor growth was monitored and final tumor weights were measured.
# M14 = test: transwell cell migration assay, M14; type: cell-based, human; details: 1, 2 and 3 μM C108
# Method: as §1, with “Cancer cells were serum-starved for 24 h and then seeded into the upper chamber of the insert in serum-free media, and lower chamber was filled with media containing 20% FBS with or without 2 μM C108.” left out
# YAP [2] = type: cell-based, human
# SK-Mel-28 melanoma = test: cell migration assay, SK-Mel-28; type: cell-based, human
# Method: as §1
# YAP mRNA = YAP mRNA level by RT-PCR; type: cell-based, human; details: BOCs 293 cells; 3 μM; 12 and 24 hr
# M14 cells = test: wound healing assay; type: cell-based, human; details: M14 melanoma; 24 hr scratch assay
# Method: Control and […] treated cells were plated on fibronectin ([…]) coated 6 well plates in complete growth media. After overnight culture, wounds were made by manual scraping of the cell monolayer with a pipet tip. The dishes were washed, replenished with media in the presence or absence of […], and photographed under phase contrast microscope. They were then placed in the tissue culture incubator, and the matched wound regions were photographed every 6 hrs. Migration rate is quantified by traveling distance of leading cellular edge normalized to initial gap distance.
# M14 melanoma xenograft = M14 melanoma xenograft in nude mice
# Method: as §5
# In order to investigate the physiological impact of C108 on implanted tumor cell growth, in vivo xenograft models using M14 melanoma and EKVX adenocarcinoma in immune compromised mice were examined. Cancer cells mixed with 50% matrigel were injected subcutaneously, palpable tumors with approximately 5 mm in diameter across all injection sites were observed within 3 weeks. At that point, control group (6 mice) was tail-vein injected with the solvent consist of 10% DMSO and 40% propylene glycol while the treatment group (6 mice) received daily injection of C108 for three additional weeks. During the treatment period, tumor growth was monitored and final tumor weights were measured.
# YAP [3] = test: YAP ubiquitination (YAP immunoprecipitation, ubiquitin Western blot); type: cell-based, human; details: SF268 glioblastoma cells
# YAP/TAZ = test: immunoblotting / phos-tag gels of YAP/TAZ phosphorylation in cultured cell lines; type: cell-based, human
# Method: Immunoblotting was performed using standard protocol. […] The phos-tag reagents were purchased from Wako Chemicals, and gels containing phos-tag were prepared according to manufacture's instructions. YAP proteins can be separated into multiple bands in the presence of phos-tag depending on differential phosphorylation levels, with phosphorylated proteins run migrate slower.
# (§2) Immunoblotting was performed using standard protocol. Antibodies for pYAP (S127), YAP, TAZ (V386), pCREB, CREB, pMLC2 (S19), pMLC2 (T18/S19), MST1, MST2, and Lats1 were from Cell Signaling Technology. Lats2 antibody was from Bethyl laboratories. HA-HRP, GFP, and MLC2 antibodies were from Santa Cruz biotechnology. Tubulin, HSP90 and Flag-HRP were purchased from Sigma Aldrich. PKA antibody was obtained from BD biosciences. GAPDH antibody was a gift from Dr. Yan Luo. Yki antibody was a gift from Dr. Kenneth Irvine. The phos-tag reagents were purchased from Wako Chemicals, and gels containing phos-tag and MnC12 were prepared according to manufacturer's instructions. YAP proteins can be separated into multiple bands on phos-tag gels, with the phosphorylated form of YAP proteins migrating at a slower speed.
# YAP [4] = test: immunofluorescence staining of YAP subcellular localization; type: cell-based, human
# Method: HEK293A or MCF10A cells were seeded on coverslips. After treatment, cells were fixed with 4% paraformaldehyde-PBS for 15 min and permeabilized with 0.1% Triton X-100 in TBS. After blocking in 3% FBS in PBS for 30 min, cells were incubated with primary antibodies overnight at 4° C. After three washes with PBS, cells were incubated with Alexa Fluor 488- or 555-conjugated secondary antibodies (Invitrogen, 1:1000 dilution) for 2 h at room temperature. Slides were then washed three times and mounted. Immunofluorescence was detected using Olympus confocal microscopy. Primary antibodies used were: YAP (H-125) and YAP (63.7) from Santa Cruz, HA from Covance, β-catenin from BD biosciences. Phalloidin alexa 488 was used to stain actin filaments. For paraffin-embedded tissues from control or LPA receptor transgenic mammary glands, 5 μm sections were prepared and subjected for immunostaining Following deparaffinization and hydration, slides were heated in sub-boiling buffer (10 mM sodium citrate, pH 6.0) for 15 min for antigen retrieval. TAZ antibody (H-70) from Santa Cruz was used to as primary antibody.
# Lats1 [5] = test: Lats1 immunoprecipitation kinase assay with GST-YAP substrate; type: cell-based, human
# Method: Cells were lysed using mild lysis buffer (50 mM HEPES at pH 7.5, 150 mM NaCl, 1 mM EDTA, 1% NP-40, 10 mM pyrophosphate, 10 mM glycerophosphate, 50 mM NaF, 1.5 mM Na3VO4, protease inhibitor cocktail [Roche], 1 mM PMSF). Cell lysates were cleared and used for immunoprecipitation. Lats1 antibody (Cell Signaling Technology) was mixed with cell lysates for 1 hr at 4° C., and then protein A agarose beads were added in for 1 hr. After four washes with lysis buffer, beads were washed once with wash buffer (40 mM HEPES, 200 mM NaCl) and once with kinase assay buffer (30 mM HEPES, 50 mM potassium acetate, 5 mM MgCl2). The immunoprecipitated Lats1 was then subjected to a kinase assay in the presence of 500 μM cold ATP, 10 μCi [γ-32P] ATP, and 1 μg of GST-YAP expressed and purified from Escherichia coli as substrate. The reaction mixtures were incubated for 30 min at 30° C., terminated with SDS sample buffer, and subjected to SDS-PAGE and immunoblotting.
# CREB = CREB phosphorylation by immunoblotting; type: cell-based, human
# Method: (§3) Immunoblotting was performed using standard protocol. Antibodies for pYAP (S127), pYAP(S381/384), pMST1/2, TAZ, pERK, ERK1/2, Lats1, MST1, pAKT (S473), pS6K, S6K were from Cell Signaling, antibodies for YAP (H-125), CTGF, Cyr61, Gq/11, G13 and 14-3-3θ were from Santa Cruz, TEAD1 antibody was from BD biosciences, pTAZ (S89) antibody was in-house raised, GAPDH antibody was a gift from Dr. Yan Luo. The phos-tag reagents were purchased from Wako Chemicals, and gels containing phos-tag were prepared according to manufacture's instructions. YAP proteins can be separated into multiple bands in the presence of phos-tag depending on differential phosphorylation levels, with phosphorylated proteins run migrate slower.
# as §2, with “YAP proteins can be separated into multiple bands on phos-tag gels, with the phosphorylated form of YAP proteins migrating at a slower speed.” left out
# YAP [6] = details: mouse, in vivo, ip
# Method: A protocol for epinephrine intraperitoneal (IP) injection in mice was approved by UCSD Institutional Animal Care and Use Committee. Fed male mice at 12 weeks of age were anesthetized. Control animals received an IP injection of propranolol (4 mg/100 g body weight) for 15 min. The test animals IP injected with epinephrine (75 μg/100 g body weight) for 15 min. […] The mice were sacrificed rapidly by cervical dislocation and the heart was harvested and immediately frozen in liquid nitrogen. Samples were stored at −80° C. until use. Frozen tissues were pulverized in liquid nitrogen. All of the subsequent steps were performed at 4° C. Powdered tissue samples were homogenized in 10 volumes (weight/volume) of buffer containing 50 mM Tris-HCl pH 7.6, 10 mM EDTA, 2 mM EGTA, 100 mM NaF, Protease inhibitor cocktail (1 mM Pefabloc, 1 mM benzamidine HCl, 1 μM leupeptin, and 1 μM E64), 1 mM PMSF, 0.2% Tritonx 100, 1 mM Na3VO4, 20 mM beta-glycerophosphate, 1 mM sodium pyrophosphate, and 50 nM calyculin A, using a tissue tearor. Homogenates were then centrifuged at 3,800 g for 10 min twice, and approximately 10 μg of protein, determined by Bradford, of the resultant supernatants were used for Western blot analysis.
# CTGF = test: expression of YAP/TAZ target gene CTGF; type: cell-based, human; details: HEK293A
# Method: as §3
# Following various treatments, cells were washed with cold phosphate-buffered saline and subjected to RNA extraction using an RNeasy Plus mini kit (Qiagen). […] Complementary DNA was then diluted and used for quantification (with β-actin gene as a control) by real-time PCR, which was performed using KAPA SYBR FAST qPCR master mix (Kapa Biosystems) and the 7300 real-time PCR system (Applied Biosystems). […]
# RNA extraction, reverse transcription and real-time PCR. […] After dilution, cDNA levels were quantified by real-time PCR using KAPA SYBR FAST qPCR master mix (Kapa Biosystems) and the 7300 real-time PCR system (Applied Biosystems). […]
# Lats1 [7] = test: Lats1 phosphorylation (S909, T1079) by immunoblotting; type: cell-based, human; details: HEK293A; LPA 1 μM, 1 h
# Method: (§4) Cells were lysed using mild lysis buffer (50 mM HEPES at pH 7.5, 150 mM NaCl, 1 mM EDTA, 1% NP-40, 10 mM pyrophosphate, 10 mM glycerophosphate, 50 mM NaF, 1.5 mM Na3VO4, protease inhibitor cocktail [Roche], 1 mM PMSF). Cell lysates were centrifuged for 10 min at 4° C., and supernatants were used for immunoprecipitation. YAP (Bethyl Laboratories) antibody was mixed with the supernatant for 1 h, and protein A-agarose beads were added in for 1 h. Immunoprecipitates were washed four times with lysis buffer, and proteins were eluted with SDS-PAGE sample buffer. For kinase assay, MST1, Lats1 or HA-Lats2 was immunoprecipitated similarly using MST1, Lats1 (Cell Signaling) or HA (Covance) antibodies.
# as §3, with “YAP proteins can be separated into multiple bands in the presence of phos-tag depending on differential phosphorylation levels, with phosphorylated proteins run migrate slower.” left out
# YAP [8] = test: YAP immunoprecipitation with TEAD1 and 14-3-3; type: cell-based, human; details: HEK293A
# Method: as §4
# Mst1/2 = test: Mst kinase activity and phosphorylation in treated cells; type: cell-based, human
# Method: Following immunoprecipitation, protein beads were washed once with wash buffer (40 mM HEPES, 200 mM NaCl) and once with kinase assay buffer (30 mM HEPES, 50 mM potassium acetate, 5 mM MgCl2). The immunoprecipitated Mst1 was subjected to a kinase assay in the presence of 500 μM cold ATP, 10 μCi [γ-^32P] ATP, and 1 μg of GST-Mob expressed and purified from Escherichia coli as substrate. The reaction mixtures were incubated for 30 min at 30° C., terminated with SDS sample buffer, and subjected to SDS-PAGE and autoradiography. Lats1 or HA-Lats2 kinase assays were performed similarly but using GST-YAP as substrates in the absence of [γ-^32P] ATP. The phosphorylation of GST-YAP at S127 was determined by immunoblotting using pYAP antibody.
# HEK293A cells = test: cell proliferation assay, HEK293A; type: cell-based, human; details: 10 μM LPA, replenished every day
# Method: HEK293A cells (expressing control shRNA or YAP/TAZ shRNA, 2×10^5) in serum-free media were maintained in the presence or absence of 10 μM LPA for 1, 2 or 3 day. Cell numbers were determined daily using a cell counter (Bio-Rad). LPA was replenished every day.
molecule,measurement,setting,value
"O=S(=O)(c1ccc2c(c1)C(=NO)c1cc(S(=O)(=O)N3CCCCC3)ccc1-2)N1CCCCC1 [C108, 2,7-bis(piperidin-1-yl-sulfonyl)-9H-fluoren-9-one oxime]",migration of EKVX adenocarcinoma,EKVX adenocarcinoma,suppressed
same,M14 Melanoma cell proliferation,M14 Melanoma,inhibitory effect
same,growth of EKVX xenograft tumors,[1],significantly inhibited
same,migration of M14,M14,suppressed
same,YAP protein in the presence of cycloheximide,"YAP [2]; 10 μM C108, 12 hrs",rapidly diminished
same,YAP protein levels,"YAP [2]; BOCS cells, 16 hours of treatment",dramatic decrease
same,concentration at which endogenous YAP protein was significantly reduced,"YAP [2]; BOCs 293 cells, 12 and 24 hr of drug exposure",2 to 3 µM
same,YAP protein levels,"YAP [2]; SF268 glioma, M14 melanoma and SK-Mel-28 melanoma",decreased
same,migration of SK-Mel-28 melanoma,SK-Mel-28 melanoma,suppressed
same,YAP mRNA levels,YAP mRNA,no noticeable changes
same,cell migration in wound-healing assay,M14 cells,strongly inhibited
same,total body weight,"M14 melanoma xenograft; 100 mg/kg daily via tail-vein injection, three weeks",not affected
same,growth of M14 xenograft tumors,"M14 melanoma xenograft; 100 mg/kg daily via tail-vein injection, three weeks, nude mice",significantly inhibited
same,apoptotic marker cleaved PARP in tumors (Western blot),M14 melanoma xenograft; M14 tumors from treated mice,dramatic increase
same,level of YAP in tumor tissues (Western blot),M14 melanoma xenograft; M14 tumors from treated mice,lower level
same,Hematoxylin and Eosin stain of tumor sections,M14 melanoma xenograft; melanoma xenografts,sparser and have lower nuclear to cytoplasimc ratio
same,endogenous YAP ubiquitination,YAP [3],dramatically increased
CNC[C@H](O)c1ccc(O)c(O)c1 [epinephrine],"YAP phosphorylation (Ser127, phos-tag), time course",YAP/TAZ,transiently increased
same,mutual effect of epinephrine and LPA on YAP phosphorylation,YAP/TAZ,antagonized each other's effect
same,phosphorylation of YAP,YAP/TAZ,dose-dependent phosphorylation
same,YAP localization (immunofluorescence),YAP [4],accumulation of cytoplasmic YAP
same,Lats1 activity,Lats1 [5],increased
same,phosphorylation of CREB,CREB,increased
same,"phosphorylation of CREB, time course",CREB,transient induction
same,YAP phosphorylation in heart,YAP [6],significantly increased
lysophosphatidic acid [LPA],phosphorylation of YAP S381/384,"YAP/TAZ; HEK293A transfected with GFP-YAP, LPA 1 h",decreased
same,"YAP/TAZ dephosphorylation, time course","YAP/TAZ; HEK293A, 1 μM for indicated times",rapid YAP/TAZ dephosphorylation
same,dephosphorylation of YAP/TAZ by phospholipids,"YAP/TAZ; HEK293A, 100 μM lipid",strongly induced dephosphorylation
same,concentration inducing complete YAP/TAZ dephosphorylation,"YAP/TAZ; HEK293A, 1 h",0.1 µM
same,concentration inducing partial YAP/TAZ dephosphorylation,"YAP/TAZ; HEK293A, 1 h",0.01 µM
same,"YAP dephosphorylation, different doses","YAP/TAZ; HEK293A, different doses of LPA, S1P, LPC or PA for 1 h",potently induced
same,mutual effect of epinephrine and LPA on YAP phosphorylation,"YAP/TAZ; serum-starved U2OS, LPA, epinephrine or both, 1 h",antagonized each other's effect
same,YAP nuclear localization,"YAP [4]; HEK293A and MCF10A, 1 μM, 1 h",induced YAP nuclear localization
same,time after LPA withdrawal at which YAP redistributed into cytoplasm,YAP [4]; MCF10A,30 min
same,expression of CTGF,CTGF,induced
same,phosphorylation of Lats1 at S909 and T1079,Lats1 [7],decreased
same,Lats1 kinase activity,"Lats1 [5]; HEK293A, serum or LPA",rapidly inhibited
same,YAP-14-3-3 interaction,YAP [8],attenuated
same,interaction between YAP and TEAD1,YAP [8],enhanced
same,phosphorylation of MST2 at T180,"Mst1/2; HEK293A with Flag-MST2, LPA 0.2 or 1 μM, 1 h",not changed
same,Mst1 kinase activity,"Mst1/2; HEK293A, FBS 1% or LPA 1 μM, GST-Mob substrate",no detectable effect
same,cell proliferation in serum free medium,HEK293A cells,strongly induced cell proliferation
